The record followed here is patent publication US8802663B2, “Pyrazole oxadiazole derivatives as S1P1 agonists” (Merck Serono SA, priority 2009, dated 2014).

Where a name gives a salt, the structure may show the parent alone.

Sequence of S1P1 (P21453 whole entry, species assumed): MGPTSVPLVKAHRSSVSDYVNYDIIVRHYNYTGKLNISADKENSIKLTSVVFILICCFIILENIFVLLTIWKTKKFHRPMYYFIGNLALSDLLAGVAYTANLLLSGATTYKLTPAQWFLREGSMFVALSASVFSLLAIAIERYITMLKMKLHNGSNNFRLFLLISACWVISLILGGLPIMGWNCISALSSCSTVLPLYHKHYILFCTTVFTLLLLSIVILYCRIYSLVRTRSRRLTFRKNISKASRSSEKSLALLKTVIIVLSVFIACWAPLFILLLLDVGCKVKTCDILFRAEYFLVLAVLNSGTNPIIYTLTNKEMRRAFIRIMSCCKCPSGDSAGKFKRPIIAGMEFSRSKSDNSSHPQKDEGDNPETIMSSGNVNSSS

In the assay the target is S1P1 (Homo sapiens (Human), UniProt P21453). The experiment in a line: 35S-GTPγS binding, membranes from CHO cells expressing S1P1. The class given is biochemical. The note with it: CHO cell membranes. How it is done:
Cells were suspended in 50 mM TRIS, pH 7.4, 2 mM EDTA, 250 mM Sucrose (buffer A) and 1× Complete protease inhibitor cocktail (Roche), and disrupted at 4° C. by N2 decompression using a cell disruption bomb (Parr Instrument). Following centrifugation at 1000 RPM for 10 min at 4° C., the supernatant was suspended in buffer A and centrifuged again at 19000 RPM for 60 min at 4° C. The pellet was then suspended in 10 mM HEPES, pH 7.4, 1 mM EDTA, 250 mM Sucrose (Buffer B), and 1× Complete EDTA-free protease inhibitor cocktail and homogenized using a potter. Membranes were flash frozen in liquid N2 and stored at −80° C. [33P]sphingosine 1-phosphate (3000 Ci/mmol; American Radiolabeled Chemicals, Inc.) was added to test compounds in DMSO. […] Specific binding was calculated by subtracting remaining radioactivity in the presence of 1000-fold excess of unlabeled SIP. Binding data were analyzed using the GraphPad Prism program.
After 60 min incubation at 30° C. on a shaker, plates were centrifuged for 10 min at 2000 RPM. […] Triplicate samples were averaged and expressed as % response relative to S1P activation in absence of compound (n=2).
In general terms: GTPγS resists hydrolysis and so accumulates on activated G proteins.
`Cc1ccccc1-c1c(-c2nc(-c3cc(F)ccc3F)no2)cnn1C1CCCCC1` [Example 48, 5-[1-cyclohexyl-5-(2-methylphenyl)-1H-pyrazol-4-yl]-3-(2,5-difluorophenyl)-1,2,4-oxadiazole] came in with an EC50 of 47 nM.

Molecule `CS(=O)(=O)c1cccc(-c2nc(-c3cnn(C4CCCCC4)c3-c3ccccc3)no2)c1` [Example 58, 3-(1-cyclohexyl-5-phenyl-1H-pyrazol-4-yl)-5-[3-(methylsulfonyl)phenyl]-1,2,4-oxadiazole] came in with an EC50 of 157 nM. Against the preceding molecule, the EC50 is about 3.3-fold higher.

`Cn1cc(-c2nc(-c3cc(F)ccc3F)no2)c(C(C)(C)C)n1` [Example 16, 5-(3-tert-butyl-1-methyl-1H-pyrazol-4-yl)-3-(2,5-difluorophenyl)-1,2,4-oxadiazole]: it took 901 nM to reach a half-maximal effect (EC50).

As to `COCc1c(-c2nc(-c3ccc(CCN(C)C)cc3)no2)cnn1C1CCCCC1` [Example 127, 2-(4-(5-(1-cyclohexyl-5-(methoxymethyl)-1H-pyrazol-4-yl)-1,2,4-oxadiazol-3-yl)phenyl)-N,N-dimethylethanamine], it took 172 nM to reach a half-maximal effect (EC50). This EC50 is about 5.2-fold lower than that of the molecule before.

The molecule `O=C(O)C1CN(Cc2ccc(-c3noc(-c4cnn(CCc5ccccc5)c4-c4ccncc4)n3)cc2)C1` [Example 110, 1-(4-(5-(1-phenethyl-5-(pyridin-4-yl)-1H-pyrazol-4-yl)-1,2,4-oxadiazol-3-yl)benzyl)azetidine-3-carboxylic acid, formate] yielded an EC50 of 40 nM.

`CCCc1c(-c2nc(-c3cccc(S(C)(=O)=O)c3)no2)cnn1-c1ccccc1` [Example 22] came in with a concentration giving a half-maximal response (EC50) of 370 nM.

Take `c1cc(-c2c(-c3nc(-c4ccc5nccn5c4)no3)cnn2C2CCCCC2)ccn1` [Example 95, 5-(1-cyclohexyl-5-(pyridin-4-yl)-1H-pyrazol-4-yl)-3-(imidazo[1,2-a]pyridin-6-yl)-1,2,4-oxadiazole]: a half-maximal effect (EC50) was put at 96 nM.

In turn, `COCc1c(-c2nc(-c3ccc(CCO)cc3)no2)cnn1C1CCCCC1` [Example 109, 2-(4-(5-(1-cyclohexyl-5-(methoxymethyl)-1H-pyrazol-4-yl)-1,2,4-oxadiazol-3-yl)phenyl)ethanol] displayed a half-maximal effective concentration (EC50) of 312 nM. Compared with the last molecule, the EC50 is about 3.2-fold higher.

`COCCc1c(-c2nc(-c3cccc(C(F)(F)F)c3)no2)cnn1C1CCCCC1` [Example 108, 5-(1-cyclohexyl-5-(2-methoxyethyl)-1H-pyrazol-4-yl)-3-(3-(trifluoromethyl)phenyl)-1,2,4-oxadiazole] registered an EC50 of 102 nM. This EC50 lies about 3.1-fold lower than the previous one.

Take `CC(C)(C)Cn1ncc(-c2nc(-c3cccc(C(F)(F)F)c3)no2)c1-c1ccncc1` [Example 90, 5-(1-neopentyl-5-(pyridin-4-yl)-1H-pyrazol-4-yl)-3-(3-(trifluoromethyl)phenyl)-1,2,4-oxadiazole]: the EC50 was found to be 35 nM.

As for `Fc1ccc(F)c(-c2noc(-c3cnn(CC(F)(F)F)c3-c3ccncc3)n2)c1` [Example 24, 3-(2,5-difluorophenyl)-5-(5-(pyridin-4-yl)-1-(2,2,2-trifluoroethyl)-1H-pyrazol-4-yl)-1,2,4-oxadiazole], a half-maximal response (EC50) required 292 nM.

The molecule `COCc1c(-c2nc(-c3ccc(CO)cc3)no2)cnn1C1CCCCC1` [Example 49, (4-{5-[1-cyclohexyl-5-(methoxymethyl)-1H-pyrazol-4-yl]-1,2,4-oxadiazol-3-yl}phenyl)methanol] registered an EC50 of 229 nM.

On to `FC(F)(F)c1cccc(-c2nc(-c3cnn(C4CCCCC4)c3-c3ccccc3)no2)c1` [Example 59, 3-(1-cyclohexyl-5-phenyl-1H-pyrazol-4-yl)-5-[3-(trifluoromethyl)phenyl]-1,2,4-oxadiazole], for which the EC50 was found to be 335 nM.

`COCCc1c(-c2nc(-c3ccc(CO)cc3)no2)cnn1C1CCCCC1` [Example 115, (4-(5-(1-cyclohexyl-5-(2-methoxyethyl)-1H-pyrazol-4-yl)-1,2,4-oxadiazol-3-yl)phenyl)methanol] showed a 50% effective concentration (EC50) of 134 nM.

`Fc1ccccc1-c1nc(-c2cnn(C3CCCCC3)c2-c2ccccc2)no1` [Example 52, 3-(1-cyclohexyl-5-phenyl-1H-pyrazol-4-yl)-5-(2-fluorophenyl)-1,2,4-oxadiazole]: a half-maximal response (EC50) required 313 nM. This EC50 is about 2.3-fold higher than that of the molecule before.

The EC50 is the concentration that produces a half-maximal response. Lower therefore signals an effect from little substance.
